Reference: US20230184744A1, “INTERTUMORAL HOMOGENEITY DETERMINED BY MiCK ASSAY” (Pierian Biosciences, LLC, priority 2014, published 2023)

Key:
[1] = system: NSCLC, multi-focal, recurrent adenocarcinoma (site B); assay: MiCK assay, drug-induced apoptosis, Table 3 tumor C2; format: cell-based, human; conditions: Table 3 tumor C2: NSCLC, multi-focal, recurrent adenocarcinoma (site B); 48 hours with drug
Excerpt: (§1) Data were obtained optically using Mie light-scattering.
(§2) Do a test well. […] Look at the well under the inverted microscope. […] Repeat until optimal cell concentration is found. Plate the cells into the wells.

[2] = system: NSCLC, multi-focal, recurrent adenocarcinoma (right lung); assay: MiCK assay, drug-induced apoptosis, Table 3 tumor D1; format: cell-based, human; conditions: Table 3 tumor D1: NSCLC, multi-focal, recurrent adenocarcinoma (right lung); 48 hours with drug
Excerpt: as §1, §2

[3] = system: NSCLC, multi-focal adenocarcinoma (site B); assay: MiCK assay, drug-induced apoptosis, Table 3 tumor E2; format: cell-based, human; conditions: Table 3 tumor E2: NSCLC, multi-focal adenocarcinoma (site B); 48 hours with drug
Excerpt: as §1, §2

[4] = system: NSCLC, bilateral well-differentiated adenocarcinoma (site 1A); assay: MiCK assay, drug-induced apoptosis, Table 3 tumor B1; format: cell-based, human; conditions: Table 3 tumor B1: NSCLC, bilateral well-differentiated adenocarcinoma (site 1A); 48 hours with drug
Excerpt: as §1, §2

[5] = system: Pancreatic islet cell cancer (lymph node); assay: MiCK assay, drug-induced apoptosis, Table 4 tumor A1; conditions: Table 4 tumor A1: Pancreatic islet cell cancer (lymph node); 48 hours with drug
Procedure: (§4) After overnight incubation, chemotherapy drugs were added to the wells of the 96-well plate in 5 μL aliquots or to the wells of a 384-well plate in 2.5 μL aliquots using an automated pipettor. The number of drugs or drug combinations and the number of concentrations tested depended on the number of viable malignant cells that were isolated from the tumor specimen. The drug concentrations, determined by molarity, were those indicated by the manufacturer as the desired blood level concentration plus or minus one serial dilution if enough cells were available.
(§5) Following drug addition, the plate was incubated for 30 min. at 37° C. in a 5% carbon dioxide humidified atmosphere incubator. Each well was then overlayed with sterile mineral oil, and the plate was placed into the incubator chamber of a microplate spectrophotometric reader. The optical density at 600 nanometers was read and recorded every 5 minutes over a period of 48 hours.
(§6) Patients: Three patients were included in this study. Two tumor samples from different tumor sites were collected from each patient. Both samples from each patient were collected on the same day.

[6] = system: Pancreatic islet cell cancer (primary tumor); assay: MiCK assay, drug-induced apoptosis, Table 4 tumor A2; conditions: 48 hours with drug
Procedure: as §4
(§7) Following drug addition, the plate was incubated for 30 min. at 37° C. in a 5% carbon dioxide humidified atmosphere incubator. Each well was then overlayed with sterile mineral oil, and the plate was placed into the incubator chamber of a microplate spectrophotometric reader. The optical density at 600 nanometers was read and recorded every 5 minutes over a period of 48 hours. Optical density increases, which correlates with apoptosis, were converted to kinetic units (KU) of apoptosis by a proprietary software ProApo with a formula described in the Kravtsov reference incorporated by reference (i.e. Kravtsov V. et al. “Use of the Microculture Kinetic Assay of apoptosis to determine chemosensitivities of leukemias.” Blood 1998; 92:968-980).
(§8) Purified tumor cells were cultured for 48 hours with individual drugs, and drug-induced apoptosis was measured using the MiCK assay as described in Example 1. Data were obtained optically using Mie light-scattering.

[7] = system: Probable mesothelioma (pleural effusion); assay: MiCK assay, drug-induced apoptosis, Table 3 tumor A2; format: cell-based, human; conditions: Table 3 tumor A2: Probable mesothelioma (pleural effusion); 48 hours with drug
Procedure: as §1
When the optimal cell concentration is reached, put the cells in the plate and incubate overnight in the incubating chamber of the incubator (37° C.).

[8] = system: NSCLC, multi-focal, recurrent adenocarcinoma (site A); assay: MiCK assay, drug-induced apoptosis, Table 3 tumor C1; format: cell-based, human; conditions: Table 3 tumor C1: NSCLC, multi-focal, recurrent adenocarcinoma (site A); 48 hours with drug
Excerpt: as §1, §2

[9] = system: Lung adenocarcinoma (pleural effusion); assay: MiCK assay, drug-induced apoptosis, Table 4 tumor B1; format: cell-based, human; conditions: Table 4 tumor B1: Lung adenocarcinoma (pleural effusion); 48 hours with drug
Excerpt: as §1
(§3) Patients: Three patients were included in this study. […] Patient A was diagnosed with pancreatic islet cell cancer; sample 1 was collected from lymph node and sample 2 was collected from the primary tumor. Patient B was diagnosed with lung cancer NSCLC adenocarcinoma; sample 1 was collected from pleural effusion and sample 2 was collected from solid tumor. […] Ages of the patients ranged from 51-79 years old with an average age of 65 years. One patient was […] and two were female.

[10] = system: NSCLC, multi-focal adenocarcinoma (site A); assay: MiCK assay, drug-induced apoptosis, Table 3 tumor E1; format: cell-based, human; conditions: Table 3 tumor E1: NSCLC, multi-focal adenocarcinoma (site A); 48 hours with drug
Excerpt: as §1, §2

[11] = system: Lung small cell carcinoma (site A); assay: MiCK assay, drug-induced apoptosis, Table 4 tumor C1; conditions: Table 4 tumor C1: Lung small cell carcinoma (site A); 48 hours with drug
Procedure: as §4, §5, §6

[12] = system: Lung adenocarcinoma (site B); assay: MiCK assay, drug-induced apoptosis, Table 4 tumor C2; conditions: Table 4 tumor C2: Lung adenocarcinoma (site B); 48 hours with drug
Procedure: as §4, §7, §8

[13] = system: NSCLC, bilateral well-differentiated adenocarcinoma (site 1B); assay: MiCK assay, drug-induced apoptosis, Table 3 tumor B2; format: cell-based, human; conditions: Table 3 tumor B2: NSCLC, bilateral well-differentiated adenocarcinoma (site 1B); 48 hours with drug
Excerpt: as §1, §2

[14] = system: NSCLC, multi-focal, recurrent adenocarcinoma (lymph node); assay: MiCK assay, drug-induced apoptosis, Table 3 tumor D2; format: cell-based, human; conditions: Table 3 tumor D2: NSCLC, multi-focal, recurrent adenocarcinoma (lymph node); 48 hours with drug
Excerpt: as §1, §2

[15] = system: Lung adenocarcinoma (solid tumor); assay: MiCK assay, drug-induced apoptosis, Table 4 tumor B2; format: cell-based, human; conditions: Table 4 tumor B2: Lung adenocarcinoma (solid tumor); 48 hours with drug
Excerpt: as §1, §3

Compound | kinetic units (KU) of apoptosis [1] [KU] | kinetic units (KU) of apoptosis [2] [KU] | kinetic units (KU) of apoptosis [3] [KU] | kinetic units (KU) of apoptosis [4] [KU] | kinetic units (KU) of apoptosis [5] [KU] | kinetic units (KU) of apoptosis [6] [KU] | kinetic units (KU) of apoptosis [7] [KU] | kinetic units (KU) of apoptosis [8] [KU] | kinetic units (KU) of apoptosis [9] [KU] | kinetic units (KU) of apoptosis [10] [KU] | kinetic units (KU) of apoptosis [11] [KU] | kinetic units (KU) of apoptosis [12] [KU] | kinetic units (KU) of apoptosis [13] [KU] | kinetic units (KU) of apoptosis [14] [KU] | kinetic units (KU) of apoptosis [15] [KU]
COc1cccc2c1C(=O)c1c(O)c3c(c(O)c1C2=O)C[C@@](O)(C(=O)CO)C[C@@H]3O[C@H]1C[C@H](N)[C@H](O)[C@H](C)O1 [Doxorubicin] | 1.50 | 1.50 | 1.50 | 1.70 | 1.27 | 2.06 | 3.80 | 0.80 | 3.50 | 1.60 | 1.60 | 0.90 | 0.90 | 1.40 | 3.50
N.N.[Cl][Pt][Cl] [Cisplatin] | 2.10 | 1.00 | 0.50 | 1.50 | 1.31 | 1.75 | 2.80 | 0.00 | 2.20 | 0.80 | 6.40 | 5.40 | 2.10 | 1.00 | 2.20
CC(=O)O[C@@]12CO[C@@H]1C[C@H](O)[C@@]1(C)C(=O)[C@H](O)C3=C(C)[C@@H](OC(=O)[C@H](O)[C@@H](NC(=O)OC(C)(C)C)c4ccccc4)C[C@@](O)([C@@H](OC(=O)c4ccccc4)[C@H]21)C3(C)C [Docetaxel] | 2.30 | 0.50 | 0.20 | 2.60 | 3.20 | 2.65 | 1.10 | 0.90 | 4.20 | 0.90 | 3.20 | 2.10 | 2.00 | 0.70 | 2.40
CC(=O)O[C@H]1C(=O)[C@@]2(C)[C@H]([C@H](OC(=O)c3ccccc3)[C@]3(O)C[C@H](OC(=O)[C@H](O)[C@@H](NC(=O)c4ccccc4)c4ccccc4)C(C)=C1C3(C)C)[C@]1(OC(C)=O)CO[C@@H]1C[C@@H]2O [Paclitaxel] | 1.00 | 1.40 | 0.50 | 1.70 | 3.43 | 2.06 | 1.40 | 0.00 | 3.00 | 0.00 | 1.70 | 3.60 | 0.90 | 0.90 | 4.00
